Ten compounds from ChEMBL document CHEMBL4190351, “Synthesis and biological evaluation of novel 6,11-dihydro-5H-benzo[e]pyrimido- [5,4-b][1,4]diazepine derivatives as potential c-Met inhibitors” (Eur J Med Chem, 2017) can be followed below.

The target in assay [1] is Hepatocyte growth factor receptor (Homo sapiens, UniProt P08581). As to the kind of experiment: Inhibition of cMet (unknown origin) using poly(Glu, Tyr)4:1 substrate and ATP incubated fro 60 mins by ELISA.
The test system of the next assay is HepG2. Briefly: Cytotoxicity in human HepG2 cells incubated for 72 hrs by sulforhodamine B assay. The following applies: HepG2, 72 h. (Sulforhodamine B stains cellular protein and so reports cell mass.)
A further assay deals with PANC-1. Briefly: Cytotoxicity in human PANC1 cells incubated for 72 hrs by sulforhodamine B assay. Particulars: PANC-1, 72 h.
For a further assay, the system named is PC-3. Briefly: Cytotoxicity in human PC3 cells incubated for 72 hrs by sulforhodamine B assay. The following applies: PC-3, 72 h.
The next assay has as its system CAKI-1. Briefly: Cytotoxicity in human Caki1 cells incubated for 72 hrs by sulforhodamine B assay. The following applies: CAKI-1, 72 h.

Chain of Hepatocyte growth factor receptor (P08581 whole entry): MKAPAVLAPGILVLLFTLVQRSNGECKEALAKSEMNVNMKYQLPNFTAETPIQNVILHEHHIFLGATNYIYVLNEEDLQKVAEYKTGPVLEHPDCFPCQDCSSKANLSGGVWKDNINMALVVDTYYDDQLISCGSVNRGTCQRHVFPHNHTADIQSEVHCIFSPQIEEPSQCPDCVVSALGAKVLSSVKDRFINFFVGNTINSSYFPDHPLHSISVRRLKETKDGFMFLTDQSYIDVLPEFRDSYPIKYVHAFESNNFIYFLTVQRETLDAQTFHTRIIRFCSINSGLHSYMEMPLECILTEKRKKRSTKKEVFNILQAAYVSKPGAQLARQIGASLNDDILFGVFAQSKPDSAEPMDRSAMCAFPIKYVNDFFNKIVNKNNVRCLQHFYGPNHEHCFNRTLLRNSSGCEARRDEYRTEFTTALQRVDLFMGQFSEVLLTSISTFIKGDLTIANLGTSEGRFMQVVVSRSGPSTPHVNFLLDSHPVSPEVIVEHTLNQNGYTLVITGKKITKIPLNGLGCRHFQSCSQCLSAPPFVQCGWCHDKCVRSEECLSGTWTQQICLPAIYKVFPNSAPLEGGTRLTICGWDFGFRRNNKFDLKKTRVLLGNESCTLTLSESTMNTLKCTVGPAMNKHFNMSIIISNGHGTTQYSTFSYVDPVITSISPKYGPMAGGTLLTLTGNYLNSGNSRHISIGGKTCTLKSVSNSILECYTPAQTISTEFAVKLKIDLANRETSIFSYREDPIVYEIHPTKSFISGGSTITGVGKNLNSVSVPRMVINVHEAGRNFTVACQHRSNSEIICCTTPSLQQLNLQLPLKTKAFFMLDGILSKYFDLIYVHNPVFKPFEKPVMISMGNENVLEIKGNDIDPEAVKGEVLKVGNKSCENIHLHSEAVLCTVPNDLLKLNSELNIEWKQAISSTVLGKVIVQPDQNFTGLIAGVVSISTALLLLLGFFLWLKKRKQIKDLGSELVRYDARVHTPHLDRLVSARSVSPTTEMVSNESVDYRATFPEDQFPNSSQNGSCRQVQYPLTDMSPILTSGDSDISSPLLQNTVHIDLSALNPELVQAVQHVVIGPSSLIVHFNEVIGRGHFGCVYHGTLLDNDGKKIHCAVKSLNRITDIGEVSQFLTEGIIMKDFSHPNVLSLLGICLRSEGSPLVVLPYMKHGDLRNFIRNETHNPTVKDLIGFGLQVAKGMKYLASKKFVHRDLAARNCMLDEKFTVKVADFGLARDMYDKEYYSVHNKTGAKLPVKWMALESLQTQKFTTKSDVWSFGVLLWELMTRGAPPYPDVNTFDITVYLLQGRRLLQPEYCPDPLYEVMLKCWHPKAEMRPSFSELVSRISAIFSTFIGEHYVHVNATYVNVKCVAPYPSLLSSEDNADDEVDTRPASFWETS

With `COc1cc2c(cc1OC)Nc1ncnc(Oc3ccc(NC(=O)C4(C(=O)Nc5ccc(F)cc5)CC4)cc3F)c1N(C)C2`, the IC50 in assay [1] is more than 1000 nM. The same measure, in the same setting: as for `COc1cc2c(cc1OC)Nc1nccc(Oc3ccc(NC(=O)C4(C(=O)Nc5ccc(F)cc5)CC4)cc3F)c1N=C2`, the figure is more than 1000 nM; as for `COc1cc2c(cc1OC)C(=O)Nc1c(ncnc1Oc1ccc(NC(=O)C3(C(=O)Nc4ccc(F)cc4)CC3)cc1F)N2`, more than 1000 nM; as for `O=C(Nc1ccc(F)cc1)C1(C(=O)Nc2ccc(Oc3ncnc4c3NCc3ccccc3O4)cc2)CC1`, more than 1000 nM.

In the case of `COc1ccc2c(c1)CNc1c(nc(C)nc1Oc1ccc(NC(=O)C3(C(=O)Nc4ccc(F)cc4)CC3)cc1)N2`, the IC50 in assay [1] is more than 1000 nM.

Consider `COc1cc2c(cc1OC)Nc1nccc(Oc3ccc(NC(=O)C4(C(=O)Nc5ccc(F)cc5)CC4)cc3)c1N=C2`, for which the IC50 in assay [1] was more than 1000 nM.

In the case of `COc1cc2c(cc1OC)C(=O)Nc1c(Oc3ccc(NC(=O)C4(C(=O)Nc5ccc(F)cc5)CC4)cc3F)ccnc1N2`, the IC50 in assay [1] is more than 1000 nM. In turn, `O=C(Nc1ccc(F)cc1)C1(C(=O)Nc2ccc(Oc3ncnc4c3N=Cc3ccccc3O4)cc2)CC1` registered an IC50 in assay [1] of more than 1000 nM.

As for `COc1cc2c(cc1OC)Oc1ncnc(Oc3ccc(NC(=O)C4(C(=O)Nc5ccc(F)cc5)CC4)cc3)c1N=C2`, in assay [1], the IC50 is more than 1000 nM.

As to `COc1cc2c(cc1OC)Nc1ncnc(Oc3ccc(NC(=O)C4(C(=O)Nc5ccc(F)cc5)CC4)cc3F)c1N=C2`, the IC50 in the assay with HepG2 was 1340 nM; in the assay on PANC-1, 1660 nM; with PC-3, 1610 nM; in the assay with CAKI-1, 864 nM.

The IC50 is the midpoint of a concentration-inhibition curve. Low values mean greater potency in that assay, high ones weaker potency in that assay.
